Converted amounts (≈) assume the structure as drawn.
Key:
Assay type in all cases: functional
Pseudomonas fluorescens [1] = test: Antibacterial activity against Pseudomonas fluorescens MTCC 2421 at 1500 ug/ml after 18 hr by cup-plate method; conditions: MTCC 2421, 18 h, read-out: DIZ
Staphylococcus aureus [2] = test: Antibacterial activity against Staphylococcus aureus MTCC 1430 after 24 hr by broth dilution method; conditions: MTCC 1430, 24 h
Aspergillus niger [3] = test: Antifungal activity against Aspergillus niger MTCC 2546 at 1500 ug/ml after 18 hr by cup-plate method; conditions: MTCC 2546, 18 h, read-out: DIZ
Pseudomonas aeruginosa [4] = test: Antibacterial activity against Pseudomonas aeruginosa MTCC 424 at 1500 ug/ml after 18 hr by cup-plate method; conditions: MTCC 424, 18 h, read-out: DIZ
Micrococcus luteus [5] = test: Antibacterial activity against Micrococcus luteus MTCC 1538 at 200 ug/ml after 18 hr by cup-plate method; conditions: MTCC 1538, 18 h, read-out: DIZ
Aspergillus niger [6] = test: Antifungal activity against Aspergillus niger MTCC 2546 at 500 ug/ml after 18 hr by cup-plate method; conditions: MTCC 2546, 18 h, read-out: DIZ
Pseudomonas fluorescens [7] = test: Antibacterial activity against Pseudomonas fluorescens MTCC 2421 at 1000 ug/ml after 18 hr by cup-plate method; conditions: MTCC 2421, 18 h, read-out: DIZ
Bacillus subtilis [8] = test: Antibacterial activity against Bacillus subtilis MTCC 441 after 24 hr by broth dilution method; conditions: MTCC 441, 24 h
Pseudomonas aeruginosa [9] = test: Antibacterial activity against Pseudomonas aeruginosa MTCC 424 after 24 hr by broth dilution method; conditions: MTCC 424, 24 h
Bacillus pumilus [10] = test: Antibacterial activity against Bacillus pumilus MTCC 1456 after 24 hr by broth dilution method; conditions: MTCC 1456, 24 h
Pseudomonas fluorescens [11] = test: Antibacterial activity against Pseudomonas fluorescens MTCC 2421 after 24 hr by broth dilution method; conditions: MTCC 2421, 24 h
Penicillium chrysogenum [12] = test: Antifungal activity against Penicillium chrysogenum MTCC 161 at 1500 ug/ml after 18 hr by cup-plate method; conditions: MTCC 161, 18 h, read-out: DIZ
Staphylococcus aureus [13] = test: Antibacterial activity against Staphylococcus aureus MTCC 1430 at 500 ug/ml after 18 hr by cup-plate method; conditions: MTCC 1430, 18 h, read-out: DIZ
Micrococcus luteus [14] = test: Antibacterial activity against Micrococcus luteus MTCC 1538 at 1000 ug/ml after 18 hr by cup-plate method; conditions: MTCC 1538, 18 h, read-out: DIZ
Staphylococcus aureus [15] = test: Antibacterial activity against Staphylococcus aureus MTCC 1430 at 100 ug/ml after 18 hr by cup-plate method; conditions: MTCC 1430, 18 h, read-out: DIZ
Pseudomonas fluorescens [16] = test: Antibacterial activity against Pseudomonas fluorescens MTCC 2421 at 100 ug/ml after 18 hr by cup-plate method; conditions: MTCC 2421, 18 h, read-out: DIZ
Pseudomonas fluorescens [17] = test: Antibacterial activity against Pseudomonas fluorescens MTCC 2421 at 500 ug/ml after 18 hr by cup-plate method; conditions: MTCC 2421, 18 h, read-out: DIZ
Micrococcus luteus [18] = test: Antibacterial activity against Micrococcus luteus MTCC 1538 at 100 ug/ml after 18 hr by cup-plate method; conditions: MTCC 1538, 18 h, read-out: DIZ
Staphylococcus aureus [19] = test: Antibacterial activity against Staphylococcus aureus MTCC 1430 at 200 ug/ml after 18 hr by cup-plate method; conditions: MTCC 1430, 18 h, read-out: DIZ
Micrococcus luteus [20] = test: Antibacterial activity against Micrococcus luteus MTCC 1538 at 500 ug/ml after 18 hr by cup-plate method; conditions: MTCC 1538, 18 h, read-out: DIZ
Penicillium chrysogenum [21] = test: Antifungal activity against Penicillium chrysogenum MTCC 161 at 500 ug/ml after 18 hr by cup-plate method; conditions: MTCC 161, 18 h, read-out: DIZ
Staphylococcus aureus [22] = test: Antibacterial activity against Staphylococcus aureus MTCC 1430 at 1000 ug/ml after 18 hr by cup-plate method; conditions: MTCC 1430, 18 h, read-out: DIZ
Pseudomonas fluorescens [23] = test: Antibacterial activity against Pseudomonas fluorescens MTCC 2421 at 200 ug/ml after 18 hr by cup-plate method; conditions: MTCC 2421, 18 h, read-out: DIZ
Penicillium chrysogenum [24] = test: Antifungal activity against Penicillium chrysogenum MTCC 161 at 1000 ug/ml after 18 hr by cup-plate method; conditions: MTCC 161, 18 h, read-out: DIZ
Penicillium chrysogenum [25] = test: Antifungal activity against Penicillium chrysogenum MTCC 161 after 24 hr by broth dilution method; conditions: MTCC 161, 24 h
Escherichia coli [26] = test: Antibacterial activity against Escherichia coli MTCC 1573 after 24 hr by broth dilution method; conditions: MTCC 1573, 24 h
Micrococcus luteus [27] = test: Antibacterial activity against Micrococcus luteus MTCC 1538 after 24 hr by broth dilution method; conditions: MTCC 1538, 24 h
Escherichia coli [28] = test: Antibacterial activity against Escherichia coli MTCC 1573 at 500 ug/ml after 18 hr by cup-plate method; conditions: MTCC 1573, 18 h, read-out: DIZ
Escherichia coli [29] = test: Antibacterial activity against Escherichia coli MTCC 1573 at 1500 ug/ml after 18 hr by cup-plate method; conditions: MTCC 1573, 18 h, read-out: DIZ
Aspergillus niger [30] = test: Antifungal activity against Aspergillus niger MTCC 2546 after 24 hr by broth dilution method; conditions: MTCC 2546, 24 h
Staphylococcus aureus [31] = test: Antibacterial activity against Staphylococcus aureus MTCC 1430 at 1500 ug/ml after 18 hr by cup-plate method; conditions: MTCC 1430, 18 h, read-out: DIZ
Aspergillus niger [32] = test: Antifungal activity against Aspergillus niger MTCC 2546 at 1000 ug/ml after 18 hr by cup-plate method; conditions: MTCC 2546, 18 h, read-out: DIZ
Micrococcus luteus [33] = test: Antibacterial activity against Micrococcus luteus MTCC 1538 at 1500 ug/ml after 18 hr by cup-plate method; conditions: MTCC 1538, 18 h, read-out: DIZ
Escherichia coli [34] = test: Antibacterial activity against Escherichia coli MTCC 1573 at 1000 ug/ml after 18 hr by cup-plate method; conditions: MTCC 1573, 18 h, read-out: DIZ
Penicillium chrysogenum [35] = test: Antifungal activity against Penicillium chrysogenum MTCC 161 at 100 ug/ml after 18 hr by cup-plate method; conditions: MTCC 161, 18 h, read-out: DIZ
Aspergillus niger [36] = test: Antifungal activity against Aspergillus niger MTCC 2546 at 100 ug/ml after 18 hr by cup-plate method; conditions: MTCC 2546, 18 h, read-out: DIZ
Pseudomonas aeruginosa [37] = test: Antibacterial activity against Pseudomonas aeruginosa MTCC 424 at 100 ug/ml after 18 hr by cup-plate method; conditions: MTCC 424, 18 h, read-out: DIZ
Bacillus subtilis [38] = test: Antibacterial activity against Bacillus subtilis MTCC 441 at 100 ug/ml after 18 hr by cup plate method; conditions: MTCC 441, 18 h, read-out: DIZ
Bacillus pumilus [39] = test: Antibacterial activity against Bacillus pumilus MTCC 1456 at 100 ug/ml after 18 hr by cup-plate method; conditions: MTCC 1456, 18 h, read-out: DIZ
Escherichia coli [40] = test: Antibacterial activity against Escherichia coli MTCC 1573 at 100 ug/ml after 18 hr by cup-plate method; conditions: MTCC 1573, 18 h, read-out: DIZ

## C(=N\c1ccccn1)/c1cccc2ccccc12
Pseudomonas fluorescens [1]
  zone of inhibition at 1500 µg/mL: 19 mm
Staphylococcus aureus [2]
  MIC: 400 µg/mL (≈ 1720 µM)
Aspergillus niger [3]
  zone of inhibition at 1500 µg/mL: 15 mm
Pseudomonas aeruginosa [4]
  zone of inhibition at 1500 µg/mL: 15 mm
Micrococcus luteus [5]
  zone of inhibition at 200 µg/mL: 12 mm
Aspergillus niger [6]
  zone of inhibition at 500 µg/mL: 12 mm
Pseudomonas fluorescens [7]
  zone of inhibition at 1000 µg/mL: 17 mm
Bacillus subtilis [8]
  MIC: 500 µg/mL (≈ 2150 µM)
Pseudomonas aeruginosa [9]
  MIC: 500 µg/mL (≈ 2150 µM)
Bacillus pumilus [10]
  MIC: 500 µg/mL (≈ 2150 µM)
Pseudomonas fluorescens [11]
  MIC: 300 µg/mL (≈ 1290 µM)
Penicillium chrysogenum [12]
  zone of inhibition at 1500 µg/mL: 17 mm
Staphylococcus aureus [13]
  zone of inhibition at 500 µg/mL: 14 mm
Micrococcus luteus [14]
  zone of inhibition at 1000 µg/mL: 20 mm
Staphylococcus aureus [15]
  zone of inhibition at 100 µg/mL: 11 mm
Pseudomonas fluorescens [16]
  zone of inhibition at 100 µg/mL: 11 mm
Pseudomonas fluorescens [17]
  zone of inhibition at 500 µg/mL: 15 mm
Micrococcus luteus [18]
  zone of inhibition at 100 µg/mL: 11 mm
Staphylococcus aureus [19]
  zone of inhibition at 200 µg/mL: 12 mm
Micrococcus luteus [20]
  zone of inhibition at 500 µg/mL: 17 mm
Penicillium chrysogenum [21]
  zone of inhibition at 500 µg/mL: 10 mm
Staphylococcus aureus [22]
  zone of inhibition at 1000 µg/mL: 16 mm
Pseudomonas fluorescens [23]
  zone of inhibition at 200 µg/mL: 13 mm
Penicillium chrysogenum [24]
  zone of inhibition at 1000 µg/mL: 12 mm
Penicillium chrysogenum [25]
  MIC: 500 µg/mL (≈ 2150 µM)
Escherichia coli [26]
  MIC: 400 µg/mL (≈ 1720 µM)
Micrococcus luteus [27]
  MIC: 400 µg/mL (≈ 1720 µM)
Escherichia coli [28]
  zone of inhibition at 500 µg/mL: 11 mm
Escherichia coli [29]
  zone of inhibition at 1500 µg/mL: 16 mm
Aspergillus niger [30]
  MIC: 500 µg/mL (≈ 2150 µM)
Staphylococcus aureus [31]
  zone of inhibition at 1500 µg/mL: 20 mm
Aspergillus niger [32]
  zone of inhibition at 1000 µg/mL: 13 mm
Micrococcus luteus [33]
  zone of inhibition at 1500 µg/mL: 24 mm
Escherichia coli [34]
  zone of inhibition at 1000 µg/mL: 14 mm

## OC(Cn1cncn1)(Cn1cncn1)c1ccc(F)cc1F [FLUCONAZOLE]
Penicillium chrysogenum [35]
  zone of inhibition at 100 µg/mL: 16 mm
Aspergillus niger [36]
  zone of inhibition at 100 µg/mL: 28 mm

## CCn1cc(C(=O)O)c(=O)c2cc(F)c(N3CCNCC3)cc21 [NORFLOXACIN]
Pseudomonas aeruginosa [37]
  zone of inhibition at 100 µg/mL: 28 mm
Staphylococcus aureus [2]
  MIC: 50 µg/mL (≈ 157 µM)
Bacillus subtilis [8]
  MIC: 50 µg/mL (≈ 157 µM)
Pseudomonas aeruginosa [9]
  MIC: 50 µg/mL (≈ 157 µM)
Bacillus pumilus [10]
  MIC: 50 µg/mL (≈ 157 µM)
Bacillus subtilis [38]
  zone of inhibition at 100 µg/mL: 23 mm
Pseudomonas fluorescens [11]
  MIC: 50 µg/mL (≈ 157 µM)
Bacillus pumilus [39]
  zone of inhibition at 100 µg/mL: 28 mm
Staphylococcus aureus [15]
  zone of inhibition at 100 µg/mL: 25 mm
Pseudomonas fluorescens [16]
  zone of inhibition at 100 µg/mL: 25 mm
Micrococcus luteus [18]
  zone of inhibition at 100 µg/mL: 26 mm
Escherichia coli [40]
  zone of inhibition at 100 µg/mL: 36 mm
Escherichia coli [26]
  MIC: 50 µg/mL (≈ 157 µM)
Micrococcus luteus [27]
  MIC: 50 µg/mL (≈ 157 µM)
